Patent US20080064754A1, “Amino ion releasing hydrogen bonded molecule” (priority 2006, published 2008)

Tests used:
[1] = Hygroscopicity of the powder; assay type: physicochemical
Excerpt: Tri-Amino is a hygroscopic powder and as such is a valuable additive to moisturizing cosmetics.

[2] = tested on: microcirculation; assay type: in vivo
Excerpt: This acceleration of microcirculation has many positive benefits.

[3] = tested on: laboratory mice; test: LD-50 animal safety studies; assay type: in vivo; settings: oral feeding, intravenous infusion and inhalation, up to 50 percent liquid or 100 percent powder
Experimental: Applicant has tested the final reaction product in LD-50 animal (laboratory mice) studies. These studies were conducted with oral feeding, intravenous infusion and inhalation. […] (Applicant's testing facility was unable to kill the mice with very high concentrations (up to 50 percent liquid or 100 percent powder) of Applicant's Tri-Amino.

[4] = tested on: inflammation; test: Anti-inflammatory, anecdotal preliminary experiment; assay type: in vivo; settings: all forms of delivery
[5] = tested on: wounds, burns (of all degrees) and several types of chronic lesions; test: Wound healing, anecdotal preliminary experiment; assay type: in vivo
[6] = cited from earlier work

Row | Compound | hygroscopicity [1] | toxic side effects on acceleration of microcirculation ([2]; in vivo) | vaso-dilating qualities ([2]; topically or internally, anecdotal, preliminary) | toxicity in LD-50 studies [3] | anti-inflammatory qualities [4] | healing of wounds, burns and chronic lesions [5] | lesions healed [5] | solubility in water [6]
1 | 2-amino 5-triaminoguanidovalericbenzoicdiacetate [Tri-Amino] | hygroscopic | without toxic side effects | exhibited vaso-dilating qualities | no toxicity what-so-ever | shown anti-inflammatory qualities | ability to aid and accelerate the healing of wounds, burns (of all degrees) and several types of chronic lesions | radiation burns (third degree with complete suppression of scar formation), squamous cell carcinoma, basal cell carcinoma, psoriasis, venous stasis ulcers, decubitus ulcers (bed sores), deep surgical wounding (with suppression of scar formation), oral & genital herpes | 
2 | Nc1ccc(C(=O)O)cc1 [PABA, p-aminobenzoic acid] |  |  |  |  |  |  |  | slightly soluble in water
